{"source": "paper PMC4204886", "about": "(Biochemistry, 2014)", "key": {"class C P99 β-lactamase [1]": {"target": "T1, class C P99 β-lactamase (Enterobacter cloacae, UniProt P05364)", "conditions": "read-out: Km of the substrate; P99 enzyme; 20 mM MOPS pH 7.50, 25 °C; cited from earlier work"}, "class C P99 β-lactamase [2]": {"target": "T1, class C P99 β-lactamase", "test": "P99 β-lactamase inhibition, steady-state competition with cephalothin", "format": "biochemical"}, "[3]": {"target": "class A TEM-2 β-lactamase (Escherichia coli, UniProt P62593, Q37K)", "format": "biochemical, E. coli W3310"}, "AmpC β-lactamase": {"target": "AmpC β-lactamase (Escherichia coli, UniProt P00811)", "test": "AmpC β-lactamase inhibition, steady-state competition with cephalothin", "format": "biochemical"}, "[4]": {"target": "Streptomyces R61 DD-peptidase (Streptomyces sp., UniProt P15555)", "test": "R61 DD-peptidase inhibition in solution", "format": "biochemical"}, "[5]": {"target": "class A Staphylococcus aureus PC1 β-lactamase (Staphylococcus aureus, UniProt P00807)", "test": "PC1 β-lactamase inhibition", "format": "biochemical"}, "[6]": {"target": "class A SHV-1 β-lactamase (Klebsiella pneumoniae, UniProt P0AD64)", "test": "SHV-1 β-lactamase inhibition", "format": "biochemical", "conditions": "even at 1 mM concentrations"}, "E. coli PBP5": {"target": "E. coli PBP5 (Escherichia coli, UniProt P0AEB2)", "test": "Membrane-bound PBP inhibition, Bocillin Fl competition gel", "format": "binding", "conditions": "gel experiments, E. coli membranes, 1 h preincubation, Bocillin Fl 20 μM"}, "E. coli PBP3": {"target": "E. coli PBP3 (Escherichia coli, UniProt P0AD68)", "test": "Membrane-bound PBP inhibition, Bocillin Fl competition gel", "format": "binding", "conditions": "gel experiments, E. coli membranes, 1 h preincubation, Bocillin Fl 20 μM"}, "B. subtilis PBP4a": {"target": "B. subtilis PBP4a (Bacillus subtilis, UniProt P39844)", "test": "PBP4a inhibition in solution", "format": "biochemical"}, "E. coli PBP2": {"target": "E. coli PBP2 (Escherichia coli, UniProt P0AD65)", "test": "Membrane-bound PBP inhibition, Bocillin Fl competition gel", "format": "binding", "conditions": "gel experiments, E. coli membranes, 1 h preincubation, Bocillin Fl 20 μM"}, "E. coli PBP1a/1b": {"system": "E. coli PBP1a/1b", "test": "Membrane-bound PBP inhibition, Bocillin Fl competition gel", "format": "binding", "conditions": "gel experiments, E. coli membranes, 1 h preincubation, Bocillin Fl 20 μM"}, "TEM-1 β-lactamase": {"target": "TEM-1 β-lactamase (Escherichia coli, UniProt P62593, Q37K)", "test": "TEM-1 β-lactamase inhibition", "format": "biochemical", "conditions": "even at 1 mM concentrations"}, "E. coli PBP4": {"target": "E. coli PBP4 (Escherichia coli, UniProt P24228)", "test": "Membrane-bound PBP inhibition, Bocillin Fl competition gel", "format": "binding", "conditions": "gel experiments, E. coli membranes, 1 h preincubation, Bocillin Fl 20 μM"}, "[7]": {"target": "Actinomadura R39 DD-peptidase (Actinomadura sp., UniProt P39045)", "test": "R39 DD-peptidase inhibition in solution", "format": "biochemical"}, "[8]": {"system": "CC(=O)OCC1=C(C(=O)O)N2C(=O)[C@@H](NC(=O)Cc3cccs3)[C@H]2SC1", "test": "AmpC β-lactamase inhibition, steady-state competition with cephalothin", "format": "biochemical", "conditions": "pH 7.5; 25.0 °C"}, "[9]": {"system": "Pseudomonas class C β-lactamase", "conditions": "cited from earlier work"}, "class A BCI β-lactamase": {"system": "class A BCI β-lactamase", "conditions": "cited from earlier work"}}}
{"compound": "CC(=O)OCC1=C(C(=O)O)N2C(=O)[C@@H](NC(=O)Cc3cccs3)[C@H]2SC1", "note": "[cephalothin]", "values": [{"measurement": "Km", "setting": "class C P99 β-lactamase [1]", "result": 9, "unit": "µM"}]}
{"compound": "CC1(C)SC(C(NC(=O)Cc2ccccc2)B(O)O)NC1C(=O)O", "note": "(centres unmarked) [compound 12, 2-[1-(dihydroxyboranyl)(2-phenylacetamido)methyl]-5,5-dimethyl-1,3-thiazolidine-4-carboxylic acid]", "values": [{"measurement": "Ki", "setting": "class C P99 β-lactamase [2]", "result": "0.95 ± 0.11", "unit": "µM"}, {"measurement": "Ki", "setting": "[3]; TEM-2 β-lactamase, NI = no inhibition at 1.0 mM", "result": "NI ^b"}, {"measurement": "inhibition of TEM-2 enzyme over time", "setting": "[3]; in 24 h", "result": "no inhibition"}, {"measurement": "Ki", "setting": "AmpC β-lactamase", "result": "1.3 ± 0.4", "unit": "µM"}, {"measurement": "inhibition of Streptomyces R61 DD-peptidase", "setting": "[4]", "result": "no inhibition"}, {"measurement": "Ki", "setting": "[5]; PCI β-lactamase, NI = no inhibition at 1.0 mM", "result": "NI ^b"}, {"measurement": "inhibition of PCI β-lactamase", "setting": "[5]; even at 1 mM concentrations", "result": "Neither the TEM-1, SHV-1, nor PCI β-lactamases were inhibited"}, {"measurement": "inhibition of SHV-1 β-lactamase", "setting": "[6]", "result": "Neither the TEM-1, SHV-1, nor PCI β-lactamases were inhibited"}, {"measurement": "inhibition of E. coli PBP5", "setting": "E. coli PBP5", "result": "did not inhibit"}, {"measurement": "inhibition of E. coli PBP3", "setting": "E. coli PBP3", "result": "did not inhibit"}, {"measurement": "inhibition of B. subtilis PBP4a", "setting": "B. subtilis PBP4a", "result": "no inhibition"}, {"measurement": "inhibition of E. coli PBP2", "setting": "E. coli PBP2", "result": "did not inhibit"}, {"measurement": "inhibition of E. coli PBP1a/1b", "setting": "E. coli PBP1a/1b", "result": "did not inhibit"}, {"measurement": "inhibition of TEM-1 β-lactamase", "setting": "TEM-1 β-lactamase", "result": "Neither the TEM-1, SHV-1, nor PCI β-lactamases were inhibited"}, {"measurement": "inhibition of E. coli PBP4", "setting": "E. coli PBP4", "result": "did not inhibit"}, {"measurement": "Ki", "setting": "[7]; R39 DD-peptidase, NI = no inhibition at 0.10 mM", "result": "NI ^c"}, {"measurement": "inhibition of Actinomadura R39 DD-peptidase", "setting": "[7]; in solution", "result": "no inhibition"}]}
{"compound": "AmpC β-lactamase (Escherichia coli K-12)", "values": [{"measurement": "Km", "setting": "[8]", "result": 13.8, "unit": "µM"}]}
{"compound": "Methyl penicilloate [compound 28, reference compound]", "values": [{"measurement": "substrate activity", "setting": "[9]", "result": "substrate"}, {"measurement": "substrate activity", "setting": "class C P99 β-lactamase [2]; P99 β-lactamase, see Supporting Information", "result": "substrate"}, {"measurement": "substrate / covalent inhibitor activity", "setting": "[3]", "result": "neither a substrate nor a covalent inhibitor"}, {"measurement": "substrate / covalent inhibitor activity", "setting": "class A BCI β-lactamase", "result": "neither a substrate nor a covalent inhibitor"}]}
